# Test results: US10034844B2, “Method for enhancing immunity, inhibiting allergic reaction, and/or inhibiting autoimmune reaction” (TCI CO., LTD., priority 2016, dated 2018)
# Legend:
# HLA-DQB1 = test: RNA microarray, HLA-DQB1 expression in PBMCs (MHC-II pathway); assay type: cell-based, human; conditions: final concentration of 5%, 24 hours, normalized to control group
# Procedure: (§1) PBMCs are immunocytes present in the peripheral blood. In these preparation examples, PBMCs were isolated from the peripheral blood obtained from healthy donors.
# (§2) B. Treatments Applied to PBMCs • (b1) 1 mL X-VIVO 10 medium was added into each well of a 24-well plate, and then PBMCs obtained from step A were seeded into the medium with a density of 1×10^6 to 2×10^6/well; and • (b2) PBMCs obtained from step b1 were separated into two groups for the following treatments: • Control group: the PBMCs-containing medium was directly incubated in a 37° C. constant temperature incubator with 5% CO2 (i.e., PBMCs were cultured in a medium that was free of the compound of formula (I)) for 24 hours; • Experimental group: the compound of formula (I) was added to the PBMCs-containing medium until a final concentration of 5%, and then the medium was incubated in a 37° C. constant temperature incubator with 5% CO2 for 24 hours. […]
# (§3) To know whether the compound of formula (I) can inhibit the activation of the MHC-II pathway, after determining mRNA expression levels via the above Preparation example C, the expression levels of genes relating to MHC-II pathway (including CD4, CD74, CIITA, HLA-DMB, HLA-DPA1, HLA-DPB1, HLA-DQB1, HLA-DRA, and LGMN) of the control and experimental group were recorded respectively. […]
# [1] = system: HSPA1B (heat shock protein family A member 1B); test: RNA microarray, HSPA1B expression in PBMCs (MHC-I pathway); assay type: cell-based, human; conditions: final concentration of 5%, 24 hours, compared to control group
# Procedure: as §1, §2
# as §3, with “promote” for “inhibit”, “MHC-I” for “MHC-II”, “CTSL, HSPA1B,” for “CD4, CD74, CIITA, HLA-DMB, HLA-DPA1, HLA-DPB1, HLA-DQB1, HLA-DRA,”, “HSPA2)” for “LGMN)”
# [2] = system: HSPA2 (Heat Shock Protein Family A Member 2); test: RNA microarray, HSPA2 expression in PBMCs (MHC-I pathway); assay type: cell-based, human; conditions: final concentration of 5%, 24 hours, normalized to control group
# Procedure: as §1, §2
# as §3, with “promote” for “inhibit”, “MHC-I” for “MHC-II”, “CTSL, HSPA1B,” for “CD4, CD74, CIITA, HLA-DMB, HLA-DPA1, HLA-DPB1, HLA-DQB1, HLA-DRA,”, “HSPA2)” for “LGMN)”
# [3] = system: CD244 (Cluster of Differentiation 244); test: RNA microarray, CD244 expression in PBMCs (aging genes); assay type: cell-based, human; conditions: final concentration of 5%, 24 hours, normalized to control group
# Procedure: as §1, §2
# (§4) To know whether the compound of formula (I) can delay the aging of immunocytes, after determining mRNA expression levels via the above Preparation example C, the expression levels of genes representing the old stage of immunocytes (including CD244, ITGA4, and KLRG1) of the control and experimental group were recorded respectively. […]
# [4] = system: ITGA4 (integrin subunit alpha 4); test: RNA microarray, ITGA4 expression in PBMCs (aging genes); assay type: cell-based, human; conditions: final concentration of 5%, 24 hours, normalized to control group
# Procedure: as §1, §2, §4
# [5] = system: CD4 (Cluster of Differentiation 4); test: RNA microarray, CD4 expression in PBMCs (MHC-II pathway); assay type: cell-based, human; conditions: final concentration of 5%, 24 hours, normalized to control group
# Procedure: as §1, §2, §3
# HLA-DRA = test: RNA microarray, HLA-DRA expression in PBMCs (MHC-II pathway); assay type: cell-based, human; conditions: final concentration of 5%, 24 hours, normalized to control group
# Procedure: as §1, §2, §3
# [6] = system: CIITA (Class II Major Histocompatibility Complex Transactivator); test: RNA microarray, CIITA expression in PBMCs (MHC-II pathway); assay type: cell-based, human; conditions: final concentration of 5%, 24 hours, normalized to control group
# Procedure: as §1, §2, §3
# HLA-DPA1 = test: RNA microarray, HLA-DPA1 expression in PBMCs (MHC-II pathway); assay type: cell-based, human; conditions: final concentration of 5%, 24 hours, normalized to control group
# Procedure: as §1, §2, §3
# [7] = system: IL-1B (interleukin 1 beta); test: RNA microarray, IL-1B expression in PBMCs (macrophage activation); assay type: cell-based, human; conditions: final concentration of 5%, 24 hours, normalized to control group
# Procedure: as §1, §2
# (§5) To know whether the compound of formula (I) can promote the activation of macrophages, after determining mRNA expression levels via the above Preparation example C, the expression levels of genes relating to macrophage activation (including IL-1B and TNF-α) of the control and experimental group were recorded respectively. […]
# [8] = system: HLA-DMB (human leukocyte antigen-DMB); test: RNA microarray, HLA-DMB expression in PBMCs (MHC-II pathway); assay type: cell-based; conditions: final concentration of 5%, 24 hours, normalized to control group
# Procedure: as §1, §2, §3
# [9] = system: KLRG1 (killer cell lectin-like receptor subfamily G, member 1); test: RNA microarray, KLRG1 expression in PBMCs (aging genes); assay type: cell-based, human; conditions: final concentration of 5%, 24 hours, normalized to control group
# Procedure: as §1, §2, §4
# [10] = system: TNF-α (tumor necrosis factor alpha); test: RNA microarray, TNF-α expression in PBMCs (macrophage activation); assay type: cell-based, human; conditions: final concentration of 5%, 24 hours, compared to control group
# Procedure: as §1, §2, §5
# CTSL (Cathepsin L) = test: RNA microarray, CTSL expression in PBMCs (MHC-I pathway); assay type: cell-based, human; conditions: final concentration of 5%, 24 hours, normalized to control group
# Procedure: as §1, §2
# as §5, with “the MHC-I pathway,” for “macrophages,”, “MHC-I pathway” for “macrophage activation”, “CTSL, HSPA1B,” for “IL-1B”, “HSPA2)” for “TNF-α)”
# [11] = system: SOD2 (Superoxide dismutase 2); test: RNA microarray, SOD2 expression in PBMCs (genes delaying aging of immunocytes); assay type: cell-based, human; conditions: final concentration of 5%, 24 hours, normalized to control group
# Procedure: as §1, §2
# as §4, with “helpful for delaying” for “representing”, “aging” for “old stage”, “FOXO3, SOD2,” for “CD244, ITGA4,”, “TNFRSF14)” for “KLRG1)”
# FOXO3 (forkhead box O3) = test: RNA microarray, FOXO3 expression in PBMCs (genes delaying aging of immunocytes); assay type: cell-based, human; conditions: final concentration of 5%, 24 hours, compared to control group
# Procedure: as §1, §2
# as §4, with “helpful for delaying” for “representing”, “aging” for “old stage”, “FOXO3, SOD2,” for “CD244, ITGA4,”, “TNFRSF14)” for “KLRG1)”
# HLA-DPB1 = test: RNA microarray, HLA-DPB1 expression in PBMCs (MHC-II pathway); assay type: cell-based, human; conditions: final concentration of 5%, 24 hours, normalized to control group
# Procedure: as §1, §2, §3
# LGMN (legumain) = test: RNA microarray, LGMN expression in PBMCs (MHC-II pathway); assay type: cell-based, human; conditions: final concentration of 5%, 24 hours, normalized to control group
# Procedure: as §1, §2, §3
# [12] = system: TNFRSF14 (TNF superfamily, member 14); test: RNA microarray, TNFRSF14 expression in PBMCs (genes delaying aging of immunocytes); assay type: cell-based, human; conditions: final concentration of 5%, 24 hours, compared to control group
# Procedure: as §1, §2
# as §4, with “helpful for delaying” for “representing”, “aging” for “old stage”, “FOXO3, SOD2,” for “CD244, ITGA4,”, “TNFRSF14)” for “KLRG1)”
# [13] = system: CD74 (Cluster of Differentiation 74); test: RNA microarray, CD74 expression in PBMCs (MHC-II pathway); assay type: cell-based, human; conditions: final concentration of 5%, 24 hours, normalized to control group
# Procedure: as §1, §2, §3
smiles,measurement,setting,value
C=C1CC[C@@H](C)C2C[C@@H](O)[C@@H](C(C)C(=O)O)CC12 (some centres unmarked) [compound of formula (I)],expression level of HLA-DQB1,HLA-DQB1,0.14 times the level of the control group
same,expression level of HSPA1B,[1],significantly increased
same,expression level of HSPA2,[2],4.61 times the level of the control group
same,expression level of CD244,[3],0.14 times the level of the control group
same,expression level of ITGA4,[4],0.24 times the level of the control group
same,expression level of CD4,[5],0.47 times the level of the control group
same,expression level of HLA-DRA,HLA-DRA,0.36 times the level of the control group
same,expression level of CIITA,[6],0.40 times the level of the control group
same,expression level of HLA-DPA1,HLA-DPA1,0.23 times the level of the control group
same,expression level of IL-1B,[7],16.32 times the level of the control group
same,expression level of HLA-DMB,[8],0.31 times the level of the control group
same,expression level of KLRG1,[9],0.25 times the level of the control group
same,expression level of TNF-α,[10],significantly increased
same,expression level of CTSL,CTSL (Cathepsin L),3.13 times the level of the control group
same,expression level of SOD2,[11],6.06 times the level of the control group
same,expression level of FOXO3,FOXO3 (forkhead box O3),significantly increased
same,expression level of HLA-DPB1,HLA-DPB1,0.23 times the level of the control group
same,expression level of LGMN,LGMN (legumain),0.32 times the level of the control group
same,expression level of TNFRSF14,[12],significantly increased
same,expression level of CD74,[13],0.18 times the level of the control group
